Experimental data reported in patent publication US6605602B1, “Method of treating BK virus nephropathy” (University of Pittsburgh-of the Commonwealth System of …, priority 2001, dated 2003).

Assays:
BK virus (BKV) = experiment: Cidofovir treatment of renal transplant recipients with BKV nephropathy; BKV viral load by TaqMan QPCR; assay type: in vivo, human
Method: Nucleic acid was extracted from urine and plasma specimens (150 μl of urine or plasma per specimen) using the Qui Amp Viral RNA Minikit, commercially available from Qiagen, Inc. The extraction procedure was performed according to the manufacturer's instructions provided with the kit.
A BKV gene sequence from the VP-1 region was amplified by the real-time TaqMan QPCR assay using the following primers and probe. The forward BKVN primer had the sequence 5′-[…]-3′ (SEQ ID NO. 1) and a Tm of 59° C. The reverse BKVN primer had the sequence 5′-[…]-3′ (SEQ ID NO. 2) and a Tm of 59° C. The TaqMan probe had the sequence 5′-[…]-3′ (SEQ ID NO. 4) and a Tm of 68° C. The TaqMan probe was labeled at the 5′ end with a FAM dye and at the 3′ end with a TAMRA dye. […]
In order to generate a positive control, a BKV gene sequence from the VP-1 region encompassing the TaqMan primer amplicon was cloned in a vector using the pGEM-T PCR cloning system (Promega, Madison, Wis.). The above sequence was then quantitated using UV spectrophotometry in order to calculate the copy number for a master standard positive control. A 10× serial dilution of standard positive control, with copies ranging from 10^7 to 10^10 was made and used to generate a standard curve with each quantitative assay. […] The urinary viral load was expressed as BKV copies/μl of urine. The plasma viral load was expressed as BKV copies/μl. […]

[1] = Serum creatinine of cidofovir-treated BKVN renal transplant patients; assay type: in vivo, human; design: Current Creatinine: unit: mg/dl
Method: Four patients were treated with cidofovir at a dosage level of […], 2-3 times weekly. This is […] of the recommended dose of 5 mg/kg. In addition, cidofovir was administered without probenecid.
Subsequently, the serum creatinine progressively rose to 8 mg/dl. At this point, a combination of IV IgG, high dose steroids and a single dose of cidofovir (1 mg/kg IV without probenecid) was administered.

[2] = system: polyoma viral DNA replication; conditions: in vitro studies; cited from earlier work
[3] = within 24 hours of administration; usual dosage 5 mg/kg; cited from earlier work
[4] = contraindicated in patients with impaired renal function; cited from earlier work
JC virus = conditions: patients, infection caused by JC virus; cited from earlier work

SMILES	BKV in urine and blood samples by QPCR (BK virus (BKV); case report Patient #1, two months after single dose 1 mg/kg IV without probenecid, combined with IV IgG and high dose steroids)	clearance of BKV viruria, number of doses needed (BK virus (BKV); four BKVN patients, 0.25 to 1.0 mg/kg, 2-3 times weekly, without probenecid)	Current Creatinine ([1]; Patient 1, Post Urethral valve, 3 doses (20-20-40 mg))	Current Creatinine ([1]; Patient 2, Diabetic Nephropathy, 3 doses (70-35-15 mg))	Current Creatinine ([1]; Patient 3, Renal Dysplasia, 1 dose (20 mg))	Current Creatinine ([1]; Patient 4, IgA Nephropathy, 4 doses (200-200-200-70 mg))	serum creatinine after treatment ([1]; case report Patient #1, after resuming full immunosuppression, had risen to 8 mg/dl before treatment)	inhibition of polyoma viral DNA replication [2]	dose excreted in the urine unchanged [3]	nephrotoxicity [4]	effect in progressive multifocal leukoencephalopathy (JC virus)
Nc1ccn(C[C@@H](CO)OCP(=O)(O)O)c(=O)n1 [cidofovir, (S)-1-(3-hydroxy-2-phosphonylmethoxypropyl) cytosine]	Neither sample was amplifiable for BKV	2-4 doses	1.8	3.2	1.7	3	1.7 to 1.9 mg/dL	inhibit polyoma viral DNA replication	75-80%	nephrotoxic	reportedly effective
Nc1ccn([C@@H]2O[C@H](CO)[C@@H](O)[C@@H]2O)c(=O)n1 [cytosine arabinoside]								inhibit polyoma viral DNA replication			
